Source: ChEMBL document CHEMBL5055653, “Synthesis, microbiological evaluation and structure activity relationship analysis of linezolid analogues with different C5-acylamino substituents” (2021)
Converted amounts (≈) assume the structure as drawn. The source made the active and inactive calls. No cut-off for these calls is given here.

Tests used:
Staphylococcus aureus [1] = test: Antibacterial activity against Staphylococcus aureus ATCC 9144 assessed as reduction in bacterial growth incubated for 20 hrs by microplate reader method; assay type: functional
Staphylococcus aureus [2] = test: Antibacterial activity against Staphylococcus aureus USA 300 assessed as reduction in bacterial growth incubated for 20 hrs by microplate reader method; assay type: functional
Enterococcus faecalis [3] = test: Antibacterial activity against Vanomycin-resistant Enterococcus faecalis NCTC 12201 assessed as reduction in bacterial growth incubated for 20 hrs by microplate reader method; assay type: functional
Enterococcus faecium = test: Antibacterial activity against Vanomycin-resistant Enterococcus faecium NCTC 12204 assessed as reduction in bacterial growth incubated for 20 hrs by microplate reader method; assay type: functional
Staphylococcus aureus [4] = test: Antibacterial activity against Staphylococcus aureus 1199B assessed as reduction in bacterial growth incubated for 20 hrs by microplate reader method; assay type: functional
Enterococcus faecalis [5] = test: Antibacterial activity against Vanomycin-sensitive Enterococcus faecalis NCTC 775 assessed as reduction in bacterial growth incubated for 20 hrs by microplate reader method; assay type: functional
Staphylococcus aureus [6] = test: Antibacterial activity against Staphylococcus aureus NCTC 13616 assessed as reduction in bacterial growth incubated for 20 hrs by microplate reader method; assay type: functional
Acinetobacter baumannii [7] = test: Antibacterial activity against Acinetobacter baumannii ATCC 17978 assessed as reduction in bacterial growth incubated for 20 hrs in presence of PMBN by microplate reader method; assay type: functional, organism-based
Escherichia coli = test: Antibacterial activity against Escherichia coli NCTC 12923 assessed as reduction in bacterial growth incubated for 20 hrs in presence of PMBN by microplate reader method; assay type: functional, organism-based
Pseudomonas aeruginosa [8] = test: Antibacterial activity against Pseudomonas aeruginosa NCTC 13437 assessed as reduction in bacterial growth incubated for 20 hrs in presence of PMBN by microplate reader method; assay type: functional, organism-based
Pseudomonas aeruginosa [9] = test: Antibacterial activity against Pseudomonas aeruginosa PAO1 assessed as reduction in bacterial growth incubated for 20 hrs in presence of PMBN by microplate reader method; assay type: functional
Acinetobacter baumannii [10] = test: Antibacterial activity against Acinetobacter baumannii AYE assessed as reduction in bacterial growth incubated for 20 hrs in presence of PMBN by microplate reader method; assay type: functional, organism-based

SMILES	MIC (Staphylococcus aureus [1]) [µg/mL]	MIC (Staphylococcus aureus [2]) [µg/mL]	MIC (Enterococcus faecalis [3]) [µg/mL]	MIC (Enterococcus faecium) [µg/mL]	MIC (Staphylococcus aureus [4]) [µg/mL]	MIC (Enterococcus faecalis [5]) [µg/mL]	MIC (Staphylococcus aureus [6]) [µg/mL]	Activity (Acinetobacter baumannii [7])	Activity (Escherichia coli)	Activity (Pseudomonas aeruginosa [8])	Activity (Pseudomonas aeruginosa [9])	Activity (Acinetobacter baumannii [10])
O=C(NC[C@H]1CN(c2ccc(N3CCOCC3)c(F)c2)C(=O)O1)c1cnccn1	64 (≈ 159 µM)	64 (≈ 159 µM)	64 (≈ 159 µM)	64 (≈ 159 µM)	32 (≈ 79.7 µM)	64 (≈ 159 µM)	64 (≈ 159 µM)					
CC(=O)NC[C@H]1CN(c2ccc(N3CCOCC3)c(F)c2)C(=O)O1 [LINEZOLID]				2 (≈ 5.93 µM)								
O=C(Cc1nnn[nH]1)NC[C@H]1CN(c2ccc(N3CCNCC3)c(F)c2)C(=O)O1	> 128	> 128	> 128	> 128	> 128	> 128	> 128					
O=C(NC[C@H]1CN(c2ccc(N3CCOCC3)c(F)c2)C(=O)O1)c1cnco1	128 (≈ 328 µM)	> 128	128 (≈ 328 µM)	128 (≈ 328 µM)	128 (≈ 328 µM)	64 (≈ 164 µM)	128 (≈ 328 µM)	inactive	inactive	inactive	inactive	inactive
O=C(NC[C@H]1CN(c2ccc(N3CCOCC3)c(F)c2)C(=O)O1)[C@@H]1CCNC1	> 128	> 128	> 128	> 128	> 128	> 128	> 128	inactive	inactive	inactive	inactive	inactive
CC(C)C(=O)NC[C@H]1CN(c2ccc(N3CCOCC3)c(F)c2)C(=O)O1	16 (≈ 43.8 µM)	16 (≈ 43.8 µM)	8 (≈ 21.9 µM)	8 (≈ 21.9 µM)	8 (≈ 21.9 µM)	16 (≈ 43.8 µM)	16 (≈ 43.8 µM)					
O=C(NC[C@H]1CN(c2ccc(N3CCOCC3)c(F)c2)C(=O)O1)c1ccsc1	16 (≈ 39.5 µM)	16 (≈ 39.5 µM)	8 (≈ 19.7 µM)	8 (≈ 19.7 µM)	8 (≈ 19.7 µM)	16 (≈ 39.5 µM)	16 (≈ 39.5 µM)					
O=C(NC[C@H]1CN(c2ccc(N3CCOCC3)c(F)c2)C(=O)O1)[C@H]1CCNC1	> 128	> 128	> 128	> 128	> 128	> 128	> 128	inactive	inactive	inactive	inactive	inactive
O=C(NC[C@H]1CN(c2ccc(N3CCOCC3)c(F)c2)C(=O)O1)C1CC1	8 (≈ 22 µM)	8 (≈ 22 µM)	8 (≈ 22 µM)	8 (≈ 22 µM)	8 (≈ 22 µM)	8 (≈ 22 µM)	8 (≈ 22 µM)					
O=C(NC[C@H]1CN(c2ccc(N3CCOCC3)c(F)c2)C(=O)O1)c1ccccc1	64 (≈ 160 µM)	32 (≈ 80.1 µM)	16 (≈ 40.1 µM)	16 (≈ 40.1 µM)	16 (≈ 40.1 µM)	32 (≈ 80.1 µM)	32 (≈ 80.1 µM)					
O=C(Cc1cccc2ccccc12)NC[C@H]1CN(c2ccc(N3CCOCC3)c(F)c2)C(=O)O1	> 128	> 128	32 (≈ 69 µM)	64 (≈ 138 µM)	> 128	> 128	> 128					
Cc1nc(Br)sc1C(=O)NC[C@H]1CN(c2ccc(N3CCOCC3)c(F)c2)C(=O)O1	16 (≈ 32 µM)	16 (≈ 32 µM)	32 (≈ 64.1 µM)	32 (≈ 64.1 µM)	16 (≈ 32 µM)	32 (≈ 64.1 µM)	16 (≈ 32 µM)					
NCCCC(=O)NC[C@H]1CN(c2ccc(N3CCOCC3)c(F)c2)C(=O)O1	> 128	> 128	> 128	64 (≈ 168 µM)	> 128	> 128	> 128					
O=C(NC[C@H]1CN(c2ccc(N3CCOCC3)c(F)c2)C(=O)O1)c1cc[nH]c1	32 (≈ 82.4 µM)	32 (≈ 82.4 µM)	32 (≈ 82.4 µM)	16 (≈ 41.2 µM)	64 (≈ 165 µM)	32 (≈ 82.4 µM)	64 (≈ 165 µM)					
O=C(NC[C@H]1CN(c2ccc(N3CCOCC3)c(F)c2)C(=O)O1)C1CCCS1 (some centres undefined)	64 (≈ 156 µM)	32 (≈ 78.1 µM)	32 (≈ 78.1 µM)	32 (≈ 78.1 µM)	32 (≈ 78.1 µM)	32 (≈ 78.1 µM)	32 (≈ 78.1 µM)					
